Consider 32 compounds from patent publication US9827228B2, “Opioid receptor modulators and use thereof” (priority 2015, dated 2017).

The target in this assay is T1, hMOR (Homo sapiens, UniProt P35372).
T1 construct: host or cells: CHO-K1
Briefly: cell-based. In kind it is cell-based. Conditions: for AUC: AUC of [Ca2+]i fluorescence. As to the method: Chinese hamster ovary (CHO)-K1 cells expressing hMOR and Gα15 (CHO-K1/MOR/Gα15) were cultured in F12 medium (GIBCO) supplemented with 10 μg/mL Hygromycin B (Invivogen), 20 μg/mL Zeocin (Invivogen) and P/S/F (100 units/mL penicillin, 100 μg/mL streptomycin, 10% fetal bovine serum). The cultures were incubated at 37° C. in a humidified 5% CO2 incubator.
One day prior to running the assay, CORNING® black 96-well assay plates having a clear flat bottom were coated with a 0.1 mg/mL Poly-L-Lysine solution. CHO-K1/MOR/Gα15 cells were suspended in F12 medium and plated at a density of about 8×10^4 cells/well in 200 μL medium. Cells were incubated under a humidified atmosphere of 10% CO2 at 37° C. overnight to reach an 80-90% confluent cell monolayer before the assay. On the day of the assay, 150 μL medium was removed from each well of the plates. To each well were added FLIPR® calcium assay reagents (Molecular Devices Corporation, Sunnyvale, Calif., USA; 50 μL) dissolved in 1× assay buffer (HBSS: KCl 5 mM, KH2PO4 0.3 mM, NaCl 138 mM, NaHCO3 4 mM, Na2HPO4 0.3 mM, d-glucose 5.6 mM, with additional 20 mM HEPES and […], pH 7.4) and 2.5 mM probenecid. After incubation at 37° C. for 1 hour, a test compound, alone or together with naloxone (a MOR antagonist), was also added to each well. Using a FlexStationlll instrument (Molecular Devices Corp.), increments of the [Ca^2+]i fluorescence after robotic injection of the cell suspension were monitored at 1.52 s intervals using the excitation wavelength of 485 nm and the emission wavelength of 525 nm. The [Ca^2+]i fluorescence was measured up to 90 s after the injection. The fluorescence intensity from 6 to 12 wells of cells were averaged and the relative amount of [Ca^2+]i release was determined by integrating the AUC of the [Ca^2+]i fluorescence averages.
A CHO-K1 cell line expressing MOR and Gα15 (GenScript) was used to set up a sensitive high-throughput screen (HTS) system. […] The HTS was performed in the absence or presence of naloxone (an opioid antagonist; 20 nM), to identify AAMs.

[1] abbreviates: combined with naloxone, CHO-K1/MOR/Gα15 cells.
Setting [2] is: combined with naloxone, CHO-K1/MOR/Gα15 cells, read-out: EC50.
Where [3] appears, read: EC50, combined with naloxone, CHO-K1/MOR/Gα15 cells.

Structures are written as SMILES. Read-outs that look alike come from different tables or passages of the source.

T1 sequence (P35372 whole entry): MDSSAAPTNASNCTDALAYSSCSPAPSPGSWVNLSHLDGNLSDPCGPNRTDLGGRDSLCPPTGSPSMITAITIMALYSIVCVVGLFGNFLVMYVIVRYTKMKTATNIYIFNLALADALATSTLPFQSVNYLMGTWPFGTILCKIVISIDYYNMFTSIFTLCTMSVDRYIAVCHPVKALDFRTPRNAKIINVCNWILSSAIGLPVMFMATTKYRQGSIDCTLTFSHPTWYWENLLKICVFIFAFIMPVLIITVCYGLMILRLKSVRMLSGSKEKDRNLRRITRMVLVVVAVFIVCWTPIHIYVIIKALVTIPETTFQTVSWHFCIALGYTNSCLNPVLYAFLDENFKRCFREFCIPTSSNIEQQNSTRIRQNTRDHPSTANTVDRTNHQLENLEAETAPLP

What is called EC50 is the concentration at which the effect is half-maximal. `Cc1csc(Nc2nc(-c3sc(C)nc3C)cs2)n1` [Compound 114, 2′,4′-Dimethyl-N-(4-methyl-1,3-thiazol-2-yl)-4,5′-bi-1,3-thiazol-2-amine]: the AUC entry under setting [1] is given as “− (−: <5000)”. The EC50 under setting [2] is > 10 µM.

For the compound `Cc1nc(C)c(-c2csc(N)n2)s1` [Compound 130, 2′,4′-Dimethyl-4,5′-bi-1,3-thiazol-2-amine], under setting [1], the AUC result was “− (−: <5000)”. Besides, under setting [2], the EC50 is > 10 µM.

Turning to `Cc1cc(C)c(Nc2nc(-c3sc(C)nc3C)cs2)c(C)c1` [Compound 17, 2′,4′-Dimethyl-N-(2,4,6-trimethylphenyl)-4,5′-bi-1,3-thiazol-2-amine], the AUC entry under setting [1] is “+ (+: >5000)”. The EC50 is < 10 µM (EC50, combined with naloxone) and 3 to 10 µM under setting [3].

With `COc1ccc(Nc2nc(-c3sc(C)nc3C)cs2)c(C)c1` [Compound 35, N-(4-Methoxy-2-methylphenyl)-2′,4′-dimethyl-4,5′-bi-1,3-thiazol-2-amine], the AUC entry under setting [1] was “+ (+: >5000)”. Besides, under setting [2], the EC50 was > 10 µM.

As for `COc1cc(Nc2nc(-c3sc(C)nc3C)cs2)cc(OC)c1OC` [Compound 37, 2′,4′-Dimethyl-N-(3,4,5-trimethoxyphenyl)-4,5′-bi-1,3-thiazol-2-amine], under setting [1], the AUC result is listed as “− (−: <5000)”. The EC50 under setting [2] is > 10 µM.

As to `CCc1ccccc1Nc1nc(-c2nccs2)cs1` [Compound 126, N-(2-Ethylphenyl)-2,4′-bi-1,3-thiazol-2′-amine], the AUC entry under setting [1] is reported as “− (−: <5000)”. The EC50 under setting [2] is > 10 µM.

As for `Cc1nc(C)c(-c2csc(Nc3ccc(C(=O)O)cc3C)n2)s1` [Compound 57, 4-[(2′,4′-Dimethyl-4,5′-bi-1,3-thiazol-2-yl)amino]-3-methylbenzoic acid], the AUC entry under setting [1] is listed as “− (−: <5000)”. Besides, the EC50 under setting [2] was > 10 µM.

On to `COC(=O)Cc1cnc(Nc2nc(-c3sc(C)nc3C)cs2)s1` [Compound 111, Methyl {2-[(2′,4′-dimethyl-4,5′-bi-1,3-thiazol-2-yl)amino]-1,3-thiazol-5-yl}acetate], for which, under setting [1], the AUC entry is reported as “− (−: <5000)”. For the same compound, the EC50 under setting [2] was > 10 µM.

Take `CCc1ccccc1Nc1nccs1` [Compound 131, N-(2-Ethylphenyl)-1,3-thiazol-2-amine]: the AUC result under setting [1] is “− (−: <5000)”. Besides, under setting [2], the EC50 was > 10 µM.

For the compound `CCc1ccc(C)nc1Nc1nc(-c2sc(C)nc2C)cs1` [Compound 82, N-(3-Ethyl-6-methyl-2-pyridinyl)-2′,4′-dimethyl-4,5′-bi-1,3-thiazol-2-amine], the AUC entry under setting [1] is listed as “− (−: <5000)”. The EC50 under setting [2] was > 10 µM.

Consider `Cc1nc(C)c(-c2csc(Nc3cccc(C(F)(F)F)c3C)n2)s1` [Compound 87, 2′,4′-Dimethyl-N-[2-methyl-3-(trifluoromethyl)phenyl]-4,5′-bi-1,3-thiazol-2-amine], for which, under setting [1], the AUC result is “− (−: <5000)”. Moreover, the EC50 under setting [2] was > 10 µM.

Regarding `CCc1ccccc1Nc1nc(-c2ccccn2)cs1` [Compound 123, N-(2-Ethylphenyl)-4-(2-pyridinyl)-1,3-thiazol-2-amine], the AUC result under setting [1] is on record as “− (−: <5000)”. Besides, the EC50 under setting [2] was > 10 µM.

As for `Cc1nc(C)c(-c2csc(Nc3cc(F)ccc3C)n2)s1` [Compound 10, N-(5-Fluoro-2-methylphenyl)-2′,4′-dimethyl-4,5′-bi-1,3-thiazol-2-amine], under setting [1], the AUC entry was “− (−: <5000)”. Under setting [2], the EC50 is > 10 µM.

Turning to `CCc1ccccc1Nc1nc(-c2sc(N)nc2C)cs1` [Compound 100, N^2-(2-ethylphenyl)-4′-methyl-4,5′-bi-1,3-thiazole-2,2′-diamine], the AUC entry under setting [1] is listed as “− (−: <5000)”. In addition, the EC50 under setting [2] is > 10 µM.

As to `Cc1nc(C)c(-c2csc(Nc3cccc(F)c3C)n2)s1` [Compound 21, N-(3-Fluoro-2-methylphenyl)-2′,4′-dimethyl-4,5′-bi-1,3-thiazol-2-amine], under setting [1], the AUC entry is “+ (+: >5000)”. For the same compound, the EC50 under setting [2] was > 10 µM.

As to `CCc1ccccc1Nc1nc(-c2sc(-c3ccc(Cl)cc3)nc2C)cs1` [Compound 94, 2′-(4-Chlorophenyl)-N-(2-ethylphenyl)-4′-methyl-4,5′-bi-1,3-thiazol-2-amine], the AUC result under setting [1] is given as “− (−: <5000)”. Moreover, the EC50 under setting [2] was > 10 µM.

As to `COc1cccc(Nc2nc(-c3sc(C)nc3C)cs2)c1C` [Compound 85, N-(3-Methoxy-2-methylphenyl)-2′,4′-dimethyl-4,5′-bi-1,3-thiazol-2-amine], under setting [1], the AUC entry is reported as “+ (+: >5000)”. Moreover, the EC50 (EC50, combined with naloxone) is < 10 µM and the EC50 under setting [3] is 3 to 10 µM.

As to `CCc1ccccc1Nc1nc(-c2sc(-c3ccccc3)nc2C)cs1` [Compound 92, N-(2-Ethylphenyl)-4′-methyl-2′-phenyl-4,5′-bi-1,3-thiazol-2-amine], the AUC result under setting [1] is “− (−: <5000)”. Also, the EC50 under setting [2] was > 10 µM.

On to `Cc1nc(C)c(-c2csc(Nc3c(C)cccc3C)n2)s1` [Compound 41, N-(2,6-Dimethylphenyl)-2′,4′-dimethyl-4,5′-bi-1,3-thiazol-2-amine], for which the AUC result under setting [1] was “− (−: <5000)”. The EC50 under setting [2] was > 10 µM.

Consider `Cc1nc(C)c(-c2csc(Nc3ncccc3C)n2)s1` [Compound 79, 2′,4′-Dimethyl-N-(3-methyl-2-pyridinyl)-4,5′-bi-1,3-thiazol-2-amine], for which, under setting [1], the AUC entry was “− (−: <5000)”. The EC50 under setting [2] was > 10 µM.

With `Cc1nc(C)c(-c2csc(Nc3ccccc3O)n2)s1` [Compound 65, 2-[(2′,4′-Dimethyl-4,5′-bi-1,3-thiazol-2-yl)amino]phenol], the AUC result under setting [1] is recorded as “+ (+: >5000)”. In addition, under setting [2], the concentration giving a half-maximal response (EC50) is > 10 µM.

Turning to `CCc1ccccc1Nc1ncc(-c2oc(C)nc2C)o1` [Compound 109, 5-(2,4-Dimethyl-1,3-oxazol-5-yl)-N-(2-ethylphenyl)-1,3-oxazol-2-amine], under setting [1], the AUC entry is listed as “− (−: <5000)”. Moreover, under setting [2], the EC50 is > 10 µM.

As for `Cc1nc(C)c(-c2csc(Nc3ccccc3N3CCOCC3)n2)s1` [Compound 70, 2′,4′-Dimethyl-N-[2-(4-morpholinyl)phenyl]-4,5′-bi-1,3-thiazol-2-amine], the AUC result under setting [1] was “− (−: <5000)”. Moreover, the EC50 is < 10 µM (EC50, combined with naloxone) and 3 to 10 µM under setting [3].

As to `COc1ccc(Nc2nc(-c3sc(C)nc3C)cs2)c(OC)c1` [Compound 14, N-(2,4-Dimethoxyphenyl)-2′,4′-dimethyl-4,5′-bi-1,3-thiazol-2-amine], under setting [1], the AUC result is “+ (+: >5000)”. Moreover, the half-maximal effective concentration (EC50) under setting [2] is > 10 µM.

For the compound `Cc1nc(C)c(-c2csc(Nc3c(C)cc(Cl)cc3C)n2)s1` [Compound 51, N-(4-Chloro-2,6-dimethylphenyl)-2′,4′-dimethyl-4,5′-bi-1,3-thiazol-2-amine], the AUC entry under setting [1] is “− (−: <5000)”. Further, under setting [2], the EC50 was > 10 µM.

As for `CC(=O)c1ccc(Nc2nc(-c3sc(C)nc3C)cs2)cc1` [Compound 44, 1-{4-[(2′,4′-Dimethyl-4,5′-bi-1,3-thiazol-2-yl)amino]phenyl}ethanone], the AUC result under setting [1] is “− (−: <5000)”. The EC50 under setting [3] is > 10 µM.

Regarding `CCc1cccc(CC)c1Nc1nc(-c2sc(C)nc2C)cs1` [Compound 45, N-(2,6-Diethylphenyl)-2′,4′-dimethyl-4,5′-bi-1,3-thiazol-2-amine], the AUC result under setting [1] is “− (−: <5000)”. Moreover, the EC50 runs as follows: (EC50, combined with naloxone) < 10 µM; under setting [3], 1 to 3 µM.

In the case of `CCc1cccc(C)c1Nc1nc(-c2sc(C)nc2C)cs1` [Compound 47, N-(2-Ethyl-6-methylphenyl)-2′,4′-dimethyl-4,5′-bi-1,3-thiazol-2-amine], under setting [1], the AUC result is on record as “+ (+: >5000)”. Moreover, the EC50 runs as follows: (EC50, combined with naloxone) < 10 µM; under setting [3], 1 to 3 µM.

`CCOC(=O)c1cc(-c2csc(Nc3ccccc3CC)n2)on1` [Compound 128, Ethyl 5-{2-[(2-ethylphenyl)amino]-1,3-thiazol-4-yl}-1,2-oxazole-3-carboxylate]: the AUC entry under setting [1] is reported as “− (−: <5000)”. Besides, the EC50 under setting [2] was > 10 µM.

On to `CCc1ccccc1Nc1nc(C)cs1` [Compound 132, N-(2-Ethylphenyl)-4-methyl-1,3-thiazol-2-amine], for which, under setting [1], the AUC result was “− (−: <5000)”. In addition, under setting [2], the EC50 is > 10 µM.

As to `Cc1nc(C)c(-c2csc(Nc3ccc(Br)cc3C)n2)s1` [Compound 42, N-(4-Bromo-2-methylphenyl)-2′,4′-dimethyl-4,5′-bi-1,3-thiazol-2-amine], the AUC result under setting [1] is recorded as “− (−: <5000)”. Also, the EC50 under setting [2] was > 10 µM.

For the compound `Cc1nc(C)c(-c2csc(Nc3cccc(C)c3C)n2)s1` [Compound 53, N-(2,3-Dimethylphenyl)-2′,4′-dimethyl-4,5′-bi-1,3-thiazol-2-amine], the AUC entry under setting [1] was “+ (+: >5000)”. Also, the EC50 under setting [2] was > 10 µM.
